Source: PMC4755858 (Biochemistry, 2016)
Read-outs that look alike come from different tables or passages of the source.

Experiments:
[1] = target: T1, phosphodiesterase protein GdpP (GdpP84–659) (Bacillus subtilis, UniProt P37484); assay: HPLC phosphodiesterase assay, degradation rates of c-di-AMP and analogs; assay type: biochemical; conditions: for Fold Change: hydrolysis rate relative to c-di-AMP (fold slower); for degradation by GdpP (in words): HPLC assay, incubation up to 24 h
[2] = test system: wild-type ydaO riboswitch; assay: gel-shift; assay type: binding, Bacillus subtilis; conditions: for binding energy weaker than the corresponding deoxy variant: 2’-fluoro versus 2’-deoxy analog (c-dA-AMP or c-di-dAMP); for ΔΔGbind: ΔGbind(analog) − ΔGbind(c-di-AMP); for binding to ydaO riboswitch (in words): competition gel-shift, highest analog concentration tested (≥200 µM)
[3] = target: phosphodiesterase protein GdpP (Bacillus subtilis, UniProt P37484); assay: competition phosphodiesterase assay; conditions: for Fold Change: Ki relative to Km of c-di-AMP (130 µM); for effect on c-di-AMP degradation by GdpP (in words): excess unlabeled competitor analog
Chain of phosphodiesterase protein GdpP (P37484 84-659): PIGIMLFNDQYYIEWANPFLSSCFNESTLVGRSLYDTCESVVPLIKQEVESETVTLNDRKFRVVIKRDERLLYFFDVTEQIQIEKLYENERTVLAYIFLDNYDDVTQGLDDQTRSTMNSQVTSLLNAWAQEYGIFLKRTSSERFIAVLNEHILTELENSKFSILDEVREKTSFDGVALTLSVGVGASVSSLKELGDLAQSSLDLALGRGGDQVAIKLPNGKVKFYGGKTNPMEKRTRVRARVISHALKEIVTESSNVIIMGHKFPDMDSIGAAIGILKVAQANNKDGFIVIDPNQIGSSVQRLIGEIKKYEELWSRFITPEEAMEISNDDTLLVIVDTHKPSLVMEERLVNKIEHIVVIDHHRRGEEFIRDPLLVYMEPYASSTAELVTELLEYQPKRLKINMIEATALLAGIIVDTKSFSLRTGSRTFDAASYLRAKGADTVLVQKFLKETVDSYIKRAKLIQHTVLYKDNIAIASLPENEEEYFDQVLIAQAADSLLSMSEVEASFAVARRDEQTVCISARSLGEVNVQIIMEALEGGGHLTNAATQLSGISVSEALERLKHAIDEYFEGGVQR

[4] = target: ydaO riboswitch ΔSite2 mutant; assay: gel-shift binding to ydaO binding-site mutant ΔSite2; conditions: for Kd: read-out: Ligand Kd; for Kd / fold loss in affinity compared to native ligand: ΔSite2 construct; for fold loss in affinity compared to native ligand: versus c-di-AMP
[5] = target: ydaO riboswitch ΔSite1 mutant; assay: gel-shift binding to ydaO binding-site mutant ΔSite1; conditions: for Kd: read-out: Ligand Kd; for Kd / fold loss in affinity compared to native ligand: ΔSite1 construct; for fold loss in affinity compared to native ligand: versus c-di-AMP
[6] = target: T1, phosphodiesterase protein GdpP (GdpP84–659); assay: steady-state kinetics; assay type: biochemical
[7] = test system: ydaO riboswitch, both binding sites mutated; assay: gel-shift binding to ydaO construct with both binding sites mutated; conditions: both binding sites mutated in a single construct
[8] = test system: ydaO riboswitch ΔSite1 mutant; conditions: cited from earlier work
[9] = test system: ydaO riboswitch Site 2U construct; assay: gel-shift binding to ydaO G-U mutant Site 2U
[10] = target: T1, phosphodiesterase protein GdpP (GdpP84–659); conditions: cited from earlier work
[11] = test system: ydaO riboswitch Site 1U construct; assay: gel-shift binding to ydaO G-U mutant Site 1U
[12] = test system: wild-type ydaO riboswitch; conditions: cited from earlier work
[13] = loss in affinity for wild-type ydaO relative to c-di-AMP

T1 sequence (P37484 84-659): as above

Nc1ncnc2c1ncn2[C@@H]1O[C@@H]2COP(=O)(O)O[C@H]3[C@@H](F)[C@H](n4cnc5c(N)ncnc54)O[C@@H]3COP(=O)(O)O[C@H]2[C@H]1O [c-2’F-A-AMP]
Fold Change [1]: 24
Fold Loss [2]: 47
binding energy weaker than the corresponding deoxy variant ([2]; wild-type ydaO): ~0.5 kcal/mol
ΔΔGbind ([2]; wild-type ydaO): 2.3 kcal/mol

COC1C2OP(=O)(O)OCC3OC(n4cnc5c(N)ncnc54)C(O)C3OP(=O)(O)OCC2OC1n1cnc2c(N)ncnc21 (centres unmarked) [c-2’OMe-A-AMP]
Fold Change [1]: 30
Fold Loss [2]: 620

Nc1ncnc2c1ncn2[C@@H]1O[C@@H]2CO[P@@](=O)(S)O[C@H]3[C@@H](O)[C@H](n4cnc5c(N)ncnc54)O[C@@H]3CO[P@@](=O)(S)O[C@H]2[C@H]1O [c-(RpRp)-di-Aps]
Ki [3]: 260 ± 2.7 µM
Fold Change [3]: 2.0
Fold Change ([3]; listed as RpRp): ≤ 2
Kd [4]: 0.0062 ± 0.0005 µM
fold loss in affinity compared to native ligand [4]: 2 fold
degradation by GdpP (in words) [1]: No detectable degradation
Fold Change [1]: ≥ 4100
Fold Loss [2, 13]: 1.8
ΔΔGbind ([2]; wild-type ydaO): 0.4 kcal/mol
Kd [5]: 0.0113 ± 0.0008 µM
fold loss in affinity compared to native ligand [5]: 2 fold

Nc1ncnc2c1ncn2[C@@H]1O[C@@H]2CO[P@@](=O)(S)O[C@H]3[C@@H](O)[C@H](n4cnc5c(N)ncnc54)O[C@@H]3CO[P@](=O)(S)O[C@H]2[C@H]1O [c-(RpSp)-di-Aps]
Ki [3]: 210 ± 17 µM
Fold Change [3]: 1.6
Fold Change ([3]; listed as RpSp): ≤ 2
Kd [4]: 0.0054 ± 0.0004 µM
fold loss in affinity compared to native ligand [4]: 2 fold
degradation by GdpP (in words) [1]: No detectable degradation
Fold Change [1]: ≥ 4100
Fold Loss [2, 13]: 2.9
ΔΔGbind ([2]; wild-type ydaO): 0.6 kcal/mol
Kd [5]: 0.0094 ± 0.0011 µM
fold loss in affinity compared to native ligand [5]: 2 fold

Nc1ncnc2c1ncn2[C@@H]1O[C@@H]2COP(=O)(O)O[C@H]3[C@@H](O)[C@H](n4cnc5c(=O)[nH]cnc54)O[C@@H]3COP(=O)(O)O[C@H]2[C@H]1O [c-AMP-IMP]
Fold Change [1]: 3.3
ΔΔGbind ([2]; wild-type ydaO): 4.3 kcal/mol

Nc1ncnc2c1ncn2[C@@H]1O[C@@H]2COP(=O)(O)O[C@H]3C[C@H](n4cnc5c(N)ncnc54)O[C@@H]3COP(=O)(O)O[C@H]2[C@H]1F [c-dA-2’F-A]
Ki [3]: 9.4 ± 0.8 µM
Fold Change [3]: 0.07
effect on c-di-AMP degradation by GdpP (in words) [3]: reduced degradation velocity
Fold Change [1]: ≥ 4100
Fold Loss [2, 13]: 530
improvement in binding energy by replacing a 2’-fluoro substituent with a 2’-deoxy group ([2]; wild-type ydaO): ~1.4 kcal/mol
ΔΔGbind ([2]; wild-type ydaO): 3.7 kcal/mol

Nc1ncnc2c1ncn2C1CC2OP(=O)(O)OCC3OC(n4cnc5c(N)ncnc54)C(O)C3OP(=O)(O)OCC2O1 (centres unmarked) [c-dA-AMP]
effect on c-di-AMP degradation by GdpP (in words) [3]: measurable deficiency in linearization
Fold Change [1]: 1.2
Fold Loss [2]: 20
ΔΔGbind ([2]; wild-type ydaO): 1.8 kcal/mol

Nc1ncnc2c1ncn2[C@@H]1O[C@@H]2COP(=O)(O)O[C@H]3[C@@H](F)[C@H](n4cnc5c(N)ncnc54)O[C@@H]3COP(=O)(O)O[C@H]2[C@H]1F [c-di-2’F-AMP]
Ki [3]: 26 ± 3.6 µM
Fold Change [3]: 0.2
effect on c-di-AMP degradation by GdpP (in words) [3]: reduced degradation velocity
Fold Change [1]: ≥ 4100
binding energy weaker than the corresponding deoxy variant ([2]; wild-type ydaO): more than 1.7 kcal/mol
Fold Loss [2, 13]: 5100
ΔΔGbind ([2]; wild-type ydaO): 5.1 kcal/mol

CO[C@@H]1[C@@H]2OP(=O)(O)OC[C@H]3O[C@@H](n4cnc5c(N)ncnc54)[C@H](OC)[C@@H]3OP(=O)(O)OC[C@H]2O[C@H]1n1cnc2c(N)ncnc21 [c-di-2’OMe-AMP]
Ki [3]: 15 ± 2.5 µM
Fold Change [3]: 0.12
effect on c-di-AMP degradation by GdpP (in words) [3]: reduced degradation velocity
Fold Change [1]: ≥ 4100
binding to ydaO riboswitch (in words) [2]: no detectable affinity
Fold Loss [2, 13]: > 2.9 × 10^6
ΔΔGbind ([2]; wild-type ydaO): > 8.8 kcal/mol

Nc1ncnc2c1ncn2[C@@H]1O[C@@H]2COP(=O)(O)O[C@H]3[C@@H](O)[C@H](n4cnc5c(N)ncnc54)O[C@@H]3COP(=O)(O)O[C@H]2[C@H]1O [c-di-AMP, (3’-5’)-cyclic diadenosine monophosphate]
Km ([6]; c-di-AMP as substrate of GdpP): 130 µM
rate of c-di-AMP hydrolysis (kcat) ([6]; steady-state, substrate 3 to 800 µM, 200 nM GdpP): 0.26 ± 0.02 s⁻¹
Vmax, maximum reaction velocity ([6]; used in Ki equation): 15.6 min⁻¹
Kd [4]: 0.0033 ± 0.0005 µM
Hill coefficient ([4]; ΔSite2 mutant): 1
fold loss in affinity compared with wild-type ydaO ([4]; ΔSite2 mutant versus wild-type): 6 fold
affinity for the riboswitch (in words) [7]: disrupted c-di-AMP affinity
binding to Site 2 when Site 1 was mutated (in words) [8]: No measurable binding
fold lower affinity than the ΔSite mutants ([9]; Site 2U (G-U wobble) construct): less than 10 fold
Hill coefficient ([9]; Site 2U construct): 1
initial rate of hydrolysis ([1]; 100 µM substrate, 1 µM GdpP): 4.1 min⁻¹
degradation of c-di-AMP after 60 min (in words) ([1]; HPLC traces, experimental conditions used): completely degraded
rate of c-di-AMP hydrolysis, previously published value [10]: 0.55 ± 0.02 s⁻¹
Hill coefficient ([2]; c-di-AMP binding curve, wild-type ydaO, cooperative binding model): 1.6
fold lower affinity than the ΔSite mutants ([11]; Site 1U (G-U wobble) construct): less than 10 fold
Hill coefficient ([11]; Site 1U construct): 1
Kd [5]: 0.0055 ± 0.0003 µM
Hill coefficient ([5]; ΔSite1 mutant): 1
selectivity of ydaO binding over c-di-GMP and c-AMP-GMP [12]: more than 100,000 fold

Nc1nc2c(ncn2[C@@H]2O[C@@H]3COP(=O)(O)O[C@H]4[C@@H](O)[C@H](n5cnc6c(=O)[nH]c(N)nc65)O[C@@H]4COP(=O)(O)O[C@H]3[C@H]2O)c(=O)[nH]1 [c-di-GMP, (3’-5’)-cyclic diguanosine monophosphate, reference compound]
binding to ydaO riboswitch (in words) [2]: no detectable binding
ΔΔGbind ([2]; wild-type ydaO): > 10 kcal/mol

O=c1[nH]cnc2c1ncn2[C@@H]1O[C@@H]2COP(=O)(O)O[C@H]3[C@@H](O)[C@H](n4cnc5c(=O)[nH]cnc54)O[C@@H]3COP(=O)(O)O[C@H]2[C@H]1O [c-di-IMP]
Fold Change [1]: ≥ 4100
Fold Loss [2, 13]: 3600
ΔΔGbind ([2]; wild-type ydaO): 4.9 kcal/mol

Nc1ncnc2c1ncn2[C@H]1C[C@@H]2OP(=O)(O)OC[C@H]3O[C@@H](n4cnc5c(N)ncnc54)C[C@@H]3OP(=O)(O)OC[C@H]2O1 [c-di-dAMP]
Ki [3]: 200 ± 18 µM
Fold Change [3]: 1.5
effect on c-di-AMP degradation by GdpP (in words) [3]: reduced degradation velocity
Fold Change [1]: ≥ 4100
Fold Loss [2, 13]: 290
ΔΔGbind ([2]; wild-type ydaO): 3.4 kcal/mol
loss in ligand affinity ([12]; previously reported): up to 100 fold
